25 compounds from patent US20090209536A1, “AMINOQUINAZOLINE CANNABINOID RECEPTOR MODULATORS FOR TREATMENT OF DISEASE” (KALYPSYS, INC., priority 2007, published 2009) can be followed below.

Like-named read-outs stand apart in the source and are kept apart here. A value given as a limit tells only on which side of the number the result lay.

The target of experiment [1] is T1, human cannabinoid receptor type 2 (Homo sapiens, UniProt P34972).
T1 construct: expressed in transfected cells; membrane preparation
T1 sequence (P34972 whole entry): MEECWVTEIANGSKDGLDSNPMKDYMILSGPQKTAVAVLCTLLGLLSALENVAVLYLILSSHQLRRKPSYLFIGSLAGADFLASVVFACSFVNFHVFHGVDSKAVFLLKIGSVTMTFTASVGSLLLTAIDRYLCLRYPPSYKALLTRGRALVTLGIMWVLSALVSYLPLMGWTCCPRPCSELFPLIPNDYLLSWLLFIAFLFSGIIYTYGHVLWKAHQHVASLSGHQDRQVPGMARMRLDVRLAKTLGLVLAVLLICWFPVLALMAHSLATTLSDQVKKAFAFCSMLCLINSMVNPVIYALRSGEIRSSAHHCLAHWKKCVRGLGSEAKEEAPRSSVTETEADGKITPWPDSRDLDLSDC
As to the kind of experiment: Human CB2 Radioligand Binding Assay. To be noted: membranes from stably transfected CHO CB2 cells. The procedure: 1. Human CB2 Radioligand Binding Assay
This receptor binding filtration assay measures the receptor-ligand interactions of compounds by measuring ability to compete with a radiolabeled control ligand. Reactions were performed in 96 deep-well plate (Costar 3961) with a final volume of 600 ul. Compounds were added to each well either in single point (10 uM final) or dose-response. Compounds were delivered in DMSO or further diluted in incubation buffer to a final assay DMSO concentration of 1%. Incubation buffer (50 mM Tris-HCl pH 7.4, 2.5 mM EGTA, 5 mM MgCl2, 5.0 mg/ml fatty acid free BSA) was added to each well. Following buffer addition, [^3H] CP-55,940 was added. Tritiated CP-55,940 (Perkin Elmer) was used at the Kd determined from prior saturation binding experiments conducted on each lot of membranes. Membrane preparations from stably transfected CHO CB2 cells were added and the reaction was incubated for 90 minutes at 30° C. Unifilter GF/C filtration plates (Perkin Elmer) were pre-wet with 0.05% polyethylenimine. Samples were transferred to Unifilter plates and separation of unbound radioligand was achieved using a vacuum manifold (Millipore). Following thorough washing with 5 ml/well ice-cold wash buffer (50 mM Tris-HCl pH 7.4, 2.5 mM EGTA, 5 mM MgCl2, 0.5 mg/ml fatty acid free BSA), filterplates were dried completely. Betaplate Scint Scintillation cocktail (25 ul, Perkin Elmer) was applied and plates were read using Microbeta Trilux (Wallac). Data analysis was performed in Spotfire. Activity of the positive control (100 nM CP-55,940) was set as 100% efficacy.
Stable recombinant Human CB2-CHO cell membranes were prepared as follows: Chinese Hamster Ovarian (CHO) cells stably expressing human cannabinoid receptor type 2 were grown to 90% confluence in 15×100 mm culture dishes under puromycin selection (5 ug/ml) Cells were harvested from culture flasks using a cell scraper, were washed once with cold phosphate-buffered saline (calcium and magnesium free) and pelleted by centrifugation at 400 g for 5 min at 4° C. Cell pellet was washed once with cold phosphate-buffered saline and centrifuged again at 400×g for 5 min at 4° C. The pellet was suspended in ice-cold lysis buffer (10 mM Tris-HCl, 0.1 mM EDTA, containing […], pH 7.5) and homogenized in a chilled 7 ml glass dounce homogenizer using 50 strokes. The homogenate was centrifuged at 400 g for 15 min at 4° C. The cloudy supernatant was collected and centrifuged at 41000 g for 30 min at 4° C. The resulting pellet was washed with ice-cold sucrose-free lysis buffer and centrifuged again at 41000 g for 30 min at 4° C. The membrane pellet was suspended in sucrose-free storage buffer (10 mm Tris-HCl, 0.1 mM EDTA, pH 7.5) to a concentration of 2-3 mg protein/ml. Aliquots were flash frozen in liquid nitrogen and stored at −80° C. Concentration was determined using Dc protein assay kit (Bio-Rad).

For experiment [2], the target named is T2, human cannabinoid receptor type 1 (Homo sapiens, UniProt P21554).
T2 construct: purchased Perkin Elmer RBHCB1M; host or cells: HEK 293 EBNA cells
T2 sequence (P21554 whole entry): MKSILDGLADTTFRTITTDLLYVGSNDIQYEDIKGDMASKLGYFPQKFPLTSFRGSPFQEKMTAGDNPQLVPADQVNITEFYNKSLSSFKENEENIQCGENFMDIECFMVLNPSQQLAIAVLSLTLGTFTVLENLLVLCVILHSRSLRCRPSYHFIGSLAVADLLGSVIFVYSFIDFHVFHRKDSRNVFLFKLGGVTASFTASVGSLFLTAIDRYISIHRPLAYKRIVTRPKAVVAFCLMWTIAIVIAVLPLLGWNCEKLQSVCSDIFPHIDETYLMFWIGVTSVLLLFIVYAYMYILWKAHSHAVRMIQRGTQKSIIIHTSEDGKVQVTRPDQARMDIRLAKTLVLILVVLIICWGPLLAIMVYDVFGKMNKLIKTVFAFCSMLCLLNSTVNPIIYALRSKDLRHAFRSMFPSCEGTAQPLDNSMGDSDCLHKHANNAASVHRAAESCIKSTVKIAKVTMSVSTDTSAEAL
As to the kind of experiment: Human CB1 Radioligand Binding Assay (basis of selectivity, CB2 vs. CB1). To be noted: CB1: HEK 293 EBNA cells expressing human CB1; CB2: CHO CB2 membranes. How it is done: 2. Human CB1 Radioligand Binding Assay
The incubation buffer was composed of 50 mM Tris-HCl pH 7.4, 2.5 mM EDTA, 5 mM MgCl2, 5.0 mg/ml fatty acid free BSA and the wash buffer was composed of 50 mM Tris-HCl pH 7.4, 2.5 mM EDTA, 5 mM MgCl2, 0.5 mg/ml fatty acid free BSA.

[3] abbreviates: competition with [3H] CP-55,940, read-out: CB2 Ligand Binding Asssay EC50.

Broadly, the EC50 is the concentration giving half of the maximal effect. `O=C(C1CC1)N1CCN(c2nc(-c3ccccc3Cl)nc3ccccc23)CC1` [Example 97, (4-(2-(2-Chlorophenyl)quinazolin-4-yl)piperazin-1-yl)(cyclopropyl)methanone]: the EC50 in experiment [1] (setting [3]) was below 1000 nM. Further, in experiment [2], the “Selectivity, CB2 vs. CB1” value is “+ (+ indicates > 10−fold)”.
Take `CCCC(=O)N1CCN(c2nc(-c3ccccc3Cl)nc3ccccc23)CC1` [Example 95, 1-(4-(2-(2-Chlorophenyl)quinazolin-4-yl)piperazin-1-yl)butan-1-one]: the half-maximal effective concentration (EC50) in experiment [1] (setting [3]) was below 1000 nM. Also, the “Selectivity, CB2 vs. CB1” value in experiment [2] was “+ (+ indicates > 10−fold)”.
For the compound `CC(=O)N1CCN(c2nc(-c3ccc(Cl)cc3)nc3ccc(Cl)cc23)CC1` [Example 253, 1-(4-(6-Chloro-2-(4-chlorophenyl)quinazolin-4-yl)piperazin-1-yl)ethanone], the EC50 in experiment [1] (setting [3]) was above 1000 nM. Besides, the “Selectivity, CB2 vs. CB1” value in experiment [2] was “− (− indicates ≦ 10−fold)”.
With `FC(F)(F)c1ccc(-c2nc(N3CCCCC3)c3ccccc3n2)cc1` [Example 44, 4-(Piperidin-1-yl)-2-(4-(trifluoromethyl)phenyl)quinazoline], the EC50 in experiment [1] (setting [3]) is below 1000 nM. The “Selectivity, CB2 vs. CB1” value in experiment [2] is given as “− (− indicates ≦ 10−fold)”.
Turning to `Cc1cccc2c(N3CCCC3)nc(CNS(=O)(=O)c3cccc4ccccc34)nc12` [Example 2, N-((8-Methyl-4-(pyrrolidin-1-yl)quinazolin-2-yl)methyl)naphthalene-1-sulfonamide], the concentration for a half-maximal effect (EC50) in experiment [1] (setting [3]) was below 1000 nM. In experiment [2], the “Selectivity, CB2 vs. CB1” value is reported as “+ (+ indicates > 10−fold)”.
With `Fc1ccccc1-c1nc(N2CCOCC2)c2ccccc2n1` [Example 149, 2-(2-Fluorophenyl)-4-morpholin-4-ylquinazoline], the EC50 in experiment [1] (setting [3]) was above 1000 nM. For the same compound, the “Selectivity, CB2 vs. CB1” value in experiment [2] is on record as “− (− indicates ≦ 10−fold)”.
Turning to `O=S(=O)(NCc1nc(N2CCOCC2)c2ccccc2n1)c1cccc2ccccc12` [Example 300, N-((4-Morpholinoquinazolin-2-yl)methyl)naphthalene-1-sulfonamide], the EC50 in experiment [1] (setting [3]) is below 1000 nM. Besides, the “Selectivity, CB2 vs. CB1” value in experiment [2] is reported as “+ (+ indicates > 10−fold)”.
Taken in the same sequence, the figures for `CC(C)c1nc(N2CCN(C)CC2)c2ccccc2n1` [Example 148, 2-Isopropyl-4-(4-methylpiperazin-1-yl)quinazoline] were above 1000 nM and “− (− indicates ≦ 10−fold)”.
For the compound `O=C(NCc1nc(N2CCCC2)c2ccccc2n1)Nc1ccc(Cl)c(C(F)(F)F)c1` [Example 11, 1-(4-Chloro-3-(trifluoromethyl)phenyl)-3-((4-(pyrrolidin-1-yl)quinazolin-2-yl)methyl)urea], in experiment [1] (setting [3]), the EC50 was above 1000 nM. The “Selectivity, CB2 vs. CB1” value in experiment [2] is reported as “− (− indicates ≦ 10−fold)”.
Taken in the same sequence, the figures for `Fc1ccc(-c2nc(N3CCCCC3)c3ccccc3n2)c(F)c1` [Example 23, 2-(2,4-Difluorophenyl)-4-(piperidin-1-yl)quinazoline] were above 1000 nM and “− (− indicates ≦ 10−fold)”.
For `CCOC(=O)N1CCN(c2nc(C3CCCCC3)nc3ccc(Cl)cc23)CC1` [Example 221, Ethyl 4-(6-chloro-2-cyclohexylquinazolin-4-yl)piperazine-1-carboxylate], in experiment [1] (setting [3]), the EC50 is below 1000 nM. For the same compound, in experiment [2], the “Selectivity, CB2 vs. CB1” value is “+ (+ indicates > 10−fold)”.
For `Fc1ccccc1-c1nc(N2CCCC2)c2cc(Cl)ccc2n1` [Example 273, 6-Chloro-2-(2-fluorophenyl)-4-(pyrrolidin-1-yl)quinazoline], in experiment [1] (setting [3]), the EC50 is below 1000 nM. In addition, the “Selectivity, CB2 vs. CB1” value in experiment [2] is “− (− indicates ≦ 10−fold)”.
Taken in the same sequence, the figures for `COC(=O)c1ccc2nc(-c3ccccc3Cl)nc(Nc3cccc(OC(C)C)c3)c2c1` [Example 327, Methyl 2-(2-chlorophenyl)-4-(3-isopropoxyphenylamino)quinazoline-6-carboxylate] were above 1000 nM and “− (− indicates ≦ 10−fold)”.
For `CC(C)(C)c1ccc2c(N3CCCC3)nc(Nc3ccccc3)nc2c1` [Example 287, 7-tert-Butyl-N-phenyl-4-(pyrrolidin-1-yl)quinazolin-2-amine], in that order: below 1000 nM and “+ (+ indicates > 10−fold)”.
As to `CCCc1nc(N2CCCC2)c2ccccc2n1` [Example 40, 2-Propyl-4-(pyrrolidin-1-yl)quinazoline], the EC50 in experiment [1] (setting [3]) is above 1000 nM. Moreover, in experiment [2], the “Selectivity, CB2 vs. CB1” value is “− (− indicates ≦ 10−fold)”.
In the case of `CC(=O)N1CCN(c2nc(-c3ccc(C(C)(C)C)cc3)nc3ccccc23)CC1` [Example 201, 1-(4-(2-(4-tert-Butylphenyl)quinazolin-4-yl)piperazin-1-yl)ethanone], in experiment [1] (setting [3]), the concentration giving a half-maximal response (EC50) was below 1000 nM. Also, in experiment [2], the “Selectivity, CB2 vs. CB1” value is reported as “+ (+ indicates > 10−fold)”.
For the compound `FC(F)(F)Oc1ccc2nc(-c3ccc(Cl)cc3)nc(N3CCSCC3)c2c1` [Example 224, 4-(2-(4-Chlorophenyl)-6-(trifluoromethoxy)quinazolin-4-yl)thiomorpholine], in experiment [1] (setting [3]), the concentration for a half-maximal effect (EC50) was above 1000 nM. The “Selectivity, CB2 vs. CB1” value in experiment [2] is recorded as “− (− indicates ≦ 10−fold)”.
`FC(F)(F)Oc1ccc(-c2nc(N3CCOCC3)c3ccccc3n2)cc1` [Example 141, 4-Morpholin-4-yl-2-(4-trifluoromethoxyphenyl)quinazoline]: in experiment [1] (setting [3]), the EC50 is above 1000 nM. The “Selectivity, CB2 vs. CB1” value in experiment [2] was “− (− indicates ≦ 10−fold)”.
For `Clc1ccc(-c2nc(N3CCCCC3)c3ccccc3n2)c(Cl)c1` [Example 29, 2-(2,4-Dichlorophenyl)-4-piperidin-1-ylquinazoline], in that order: below 1000 nM and “+ (+ indicates > 10−fold)”.
Take `c1ccc(-c2nc(NCC3CC3)c3ccccc3n2)cc1` [Example 50, N-(Cyclopropylmethyl)-2-phenylquinazolin-4-amine]: the half-maximal effective concentration (EC50) in experiment [1] (setting [3]) is above 1000 nM. Besides, the “Selectivity, CB2 vs. CB1” value in experiment [2] is on record as “− (− indicates ≦ 10−fold)”.
Turning to `CCCC(=O)N1CCN(c2nc(-c3ccccc3Cl)nc3cccc(Cl)c23)CC1` [Example 232, 1-(4-(5-Chloro-2-(2-chlorophenyl)quinazolin-4-yl)piperazin-1-yl)butan-1-one], the EC50 in experiment [1] (setting [3]) was below 1000 nM. In experiment [2], the “Selectivity, CB2 vs. CB1” value is given as “+ (+ indicates > 10−fold)”.
For the compound `FC(F)(F)c1cccc2nc(-c3ccccc3Cl)nc(N3CCCC3)c12` [Example 242, 2-(2-Chlorophenyl)-4-(pyrrolidin-1-yl)-5-(trifluoromethyl)quinazoline], the EC50 in experiment [1] (setting [3]) was below 1000 nM. Also, the “Selectivity, CB2 vs. CB1” value in experiment [2] is “+ (+ indicates > 10−fold)”.
Compound `Clc1ccc2c(N3CCOCC3)nc(C3CCCCC3)nc2c1` [Example 165, 4-(7-Chloro-2-cyclohexylquinazolin-4-yl)morpholine] yielded an EC50 in experiment [1] (CB2 Ligand Binding Asssay EC50, competition with [3H] CP-55,940) above 1000 nM. Moreover, the “Selectivity, CB2 vs. CB1” value in experiment [2] is given as “+ (+ indicates > 10−fold)”.
Consider `c1ccc(CNc2nc(C3CCCCC3)nc3ccccc23)cc1` [Example 38, N-Benzyl-2-cyclohexylquinazolin-4-amine], for which the EC50 in experiment [1] (setting [3]) is above 1000 nM. Further, in experiment [2], the “Selectivity, CB2 vs. CB1” value is given as “− (− indicates ≦ 10−fold)”.
Taken in the same sequence, the figures for `CC(=O)N1CCN(c2nc(-c3ccccc3Cl)nc3cccc(Cl)c23)CC1` [Example 265, 1-(4-(5-Chloro-2-(2-chlorophenyl)quinazolin-4-yl)piperazin-1-yl)ethanone] were below 1000 nM and “+ (+ indicates > 10−fold)”.
